In patent US6562371B1, “Liposomes” (Terumo Kabushiki Kaisha, priority 1998, dated 2003):

Tested on: Anti-Thy-1 antibody nephritis rats
Experiment: Pharmacological effect: total protein content in urine
Type: in vivo, rat
Details: administered once i.v. on the fifth day after anti-Thy-1 antibody, urine collected on the tenth day
Procedure: Anti-Thy-1 antibody nephritis rats were prepared by intravenously administering an anti-Thy-1 antibody solution through the caudal vein of each CD (SD) male rat. On the fifth day after administration of the anti-Thy-1 antibody, the liposome dispersion liquid obtained in Preparation Example 15 (1 mg as prednisolone phosphate sodium) was administered by intravenous injection. On the tenth day after administration of the anti-Thy-1 antibody, urine was collected to measure the total protein content.
For the sake of comparison, the preparation of Comparative Example 1 (a liposome dispersion liquid having no included drug) or physiological saline was administered by the same method, and urine was collected on the tenth day after administration of the anti-Thy-1 antibody to measure the total protein content.
Also, a prednisolone phosphate sodium solution (1 mg as prednisolone phosphate sodium) which was not made into liposomes was administered once on the fifth day after administration of the anti-Thy-1 antibody, or five times (once a day for 5 days) started on the fifth day after administration of the anti-Thy-1 antibody, and urine was collected on the tenth day after administration of the anti-Thy-1 antibody to measure the total protein content.
Urine was also collected from un-treated normal rat to measure the total protein content.

Substance: prednisolone phosphate sodium
- effect on excretion of protein into urine (total protein content): no effect was found
